Results reported in ChEMBL document CHEMBL6127052, “Discovery of membrane-targeting amphiphilic honokiol derivatives containing an oxazolethione moiety to combat methicillin-resistant Staphylococcus aureus (MRSA) infections” (Eur J Med Chem, 2024).
The source made the active and inactive calls. No cut-off for these calls is given here.

Experiments:
Staphylococcus aureus [1] = assay: Antibacterial activity against methicillin-resistant Staphylococcus aureus clinical isolate M12 by CLSI based micro-broth dilution method; assay type: functional
Staphylococcus aureus [2] = assay: Antibacterial activity against methicillin-resistant Staphylococcus aureus clinical isolate M17 by CLSI based micro-broth dilution method; assay type: functional
Escherichia coli = assay: Antibacterial activity against Escherichia coli ATCC 25922 by CLSI based micro-broth dilution method; assay type: functional
Staphylococcus aureus [3] = assay: Bactericidal activity against Staphylococcus aureus ATCC 29213 at 8 times MIC incubated for 6 hrs by time-kill assay relative to control; assay type: functional
Staphylococcus aureus [4] = assay: Induction of morphological changes in methicillin-resistant Staphylococcus aureus clinical isolate M12 assessed as irregular change in cell surface at 8 times MIC incubated for 4 hrs by SEM analysis; assay type: functional, organism-based
Staphylococcus aureus [5] = assay: Induction of membrane depolarization in methicillin-resistant Staphylococcus aureus clinical isolate M12 at 8 to 32 times MIC measured every 2 mins for 10 times by DiSC3(5) dye based analysis; assay type: functional, organism-based; conditions: time 20.0 min
Staphylococcus aureus [6] = assay: Induction of membrane permeability in methicillin-resistant Staphylococcus aureus clinical isolate M12 at 8 to 32 times MIC measured every 2 mins for 10 times by SYTOX Green dye based analysis; assay type: functional, organism-based
Staphylococcus aureus [7] = assay: Antibacterial activity against methicillin-resistant Staphylococcus aureus clinical isolate M12 incubated for 16 to 18 hrs in presence of phosphatidylethanolamine; assay type: functional; conditions: time 16-18 hrs
Staphylococcus aureus [8] = assay: Antibacterial activity against methicillin-resistant Staphylococcus aureus clinical isolate M12 incubated for 16 to 18 hrs in presence of peptidoglycan; assay type: functional; conditions: time 16-18 hrs
Staphylococcus aureus [9] = assay: Disruption of cell membrane in methicillin-resistant Staphylococcus aureus clinical isolate M12 assessed as fold increase in protein leakage at 8 times MIC incubated for 4 hrs by BCA assay relative to control; assay type: functional
Staphylococcus aureus [10] = assay: Disruption of cell membrane in methicillin-resistant Staphylococcus aureus clinical isolate M12 assessed as increase in DNA leakage incubated for 4 hrs by […]; assay type: functional, organism-based; conditions: dose <= 16.0 µg/ml
[11] = Toxicity in KM mouse assessed as mental abnormality at 5 to 80 mg/kg, sc; assay type: organism-based; conditions: in vivo, dose 5-80 mg/kg
[12] = Toxicity in KM mouse assessed as formation of small erythema at administration site at >40 mg/kg, sc; assay type: organism-based; conditions: in vivo
[13] = Toxicity in KM mouse assessed as skin abnormality at <20 mg/kg, sc; assay type: organism-based; conditions: in vivo
[14] = Toxicity in KM mouse assessed as adverse effect at 20 mg/kg, sc; assay type: organism-based; conditions: in vivo
[15] = Toxicity in KM mouse assessed as change in HGB level at 20 mg/kg, sc measured after 24 hrs; assay type: organism-based; conditions: in vivo
[16] = Toxicity in KM mouse assessed as change in MCV level at 20 mg/kg, sc measured after 24 hrs; assay type: organism-based; conditions: in vivo
[17] = Toxicity in KM mouse assessed as change in platelet count at 20 mg/kg, sc measured after 24 hrs; assay type: organism-based; conditions: in vivo
[18] = Toxicity in KM mouse assessed as edema in cardiac muscle fibers at 20 mg/kg, sc measured after 24 hrs by H and E staining based analysis; assay type: organism-based; conditions: in vivo
[19] = Toxicity in KM mouse assessed as edema in hepatocytes at 20 mg/kg, sc measured after 24 hrs by H and E staining based analysis; assay type: organism-based; conditions: in vivo
[20] = Toxicity in KM mouse assessed as necrosis in hepatocytes at 20 mg/kg, sc measured after 24 hrs by H and E staining based analysis; assay type: organism-based; conditions: in vivo
[21] = Toxicity in KM mouse assessed as degeneration of lung epithelial cells at 20 mg/kg, sc measured after 24 hrs by H and E staining based analysis; assay type: organism-based; conditions: in vivo
[22] = Toxicity in KM mouse assessed as edema in lung epithelial cells at 20 mg/kg, sc measured after 24 hrs by H and E staining based analysis; assay type: organism-based; conditions: in vivo
[23] = Toxicity in KM mouse assessed as necrosis in lung epithelial cells at 20 mg/kg, sc measured after 24 hrs by H and E staining based analysis; assay type: organism-based; conditions: in vivo
[24] = Toxicity in KM mouse assessed as necrosis in renal tubular epithelial cells at 20 mg/kg, sc measured after 24 hrs by H and E staining based analysis; assay type: organism-based; conditions: in vivo
[25] = Toxicity in KM mouse assessed as pathological change in red medulla of spleen at 20 mg/kg, sc measured after 24 hrs by H and E staining based analysis; assay type: organism-based; conditions: in vivo
[26] = Toxicity in KM mouse assessed as pathological change in kidney at 20 mg/kg, sc measured after 24 hrs by H and E staining based analysis; assay type: organism-based; conditions: in vivo
[27] = Toxicity in BALB/c mouse assessed as smooth hair at <15 mg/kg, ip bid for 7 days; assay type: organism-based; conditions: in vivo, 168 h, time 7 day
[28] = Toxicity in BALB/c mouse assessed as degeneration of hepatocytes at 15 mg/kg, ip bid for 7 days; assay type: organism-based; conditions: in vivo, 168 h, time 7 day
[29] = Toxicity in BALB/c mouse assessed as edema in renal tubular epithelial cells at 15 mg/kg, ip bid for 7 days; assay type: organism-based; conditions: in vivo, 168 h, time 7 day
[30] = Toxicity in BALB/c mouse assessed as pathological change in white medulla of spleen at 15 mg/kg, ip bid for 7 days; assay type: organism-based; conditions: in vivo, 168 h, time 7 day
Staphylococcus aureus [31] = assay: Antibacterial activity against methicillin-resistant Staphylococcus aureus clinical isolate M12 infected in KM mouse assessed as smooth skin at infection site at 10 mg/kg, sc measured after 24 hrs; assay type: functional, organism-based
Staphylococcus aureus [32] = assay: Antibacterial activity against methicillin-resistant Staphylococcus aureus clinical isolate M12 infected in KM mouse assessed as decrease in pus formation in subcutaneous area at 10 mg/kg, sc measured after 24 hrs; assay type: functional, organism-based
Staphylococcus aureus [33] = assay: Antibacterial activity against methicillin-resistant Staphylococcus aureus clinical isolate M12 infected in KM mouse assessed as decrease in erythematous pustules in intradermal tissues at 5 mg/kg, sc measured after 24 hrs; assay type: functional, organism-based
Staphylococcus aureus [34] = assay: Antibacterial activity against methicillin-resistant Staphylococcus aureus clinical isolate M12 infected in KM mouse assessed as reduction in TNF-alpha level at infection site at 5 mg/kg, sc measured after 24 hrs by ELISA; assay type: functional
[35] = Toxicity in KM mouse infected with methicillin-resistant Staphylococcus aureus clinical isolate M12 assessed as damage in heart at 5 to 10 mg/kg, sc measured after 24 hrs by H and E staining based analysis; assay type: organism-based; conditions: in vivo, dose 5-10 mg/kg
[36] = Toxicity in KM mouse infected with methicillin-resistant Staphylococcus aureus clinical isolate M12 assessed as damage in liver at 5 to 10 mg/kg, sc measured after 24 hrs by H and E staining based analysis; assay type: organism-based; conditions: in vivo, dose 5-10 mg/kg
Staphylococcus aureus [37] = assay: Antibacterial activity against methicillin-resistant Staphylococcus aureus clinical isolate M12 infected in sepsis BALB/c mouse model assessed as decrease in bacterial load in kidney at 12 mg/kg, ip administered consecutively at 12 hr-interval for 24 hrs measured after 24 hrs post-last dose; assay type: functional; conditions: time 48 hrs
Staphylococcus aureus [38] = assay: Antibacterial activity against methicillin-resistant Staphylococcus aureus clinical isolate M12 infected in sepsis BALB/c mouse model assessed as decrease in bacterial load in spleen at 12 mg/kg, ip administered consecutively at 12 hr-interval for 24 hrs measured after 24 hrs post-last dose; assay type: functional; conditions: time 48 hrs
Staphylococcus aureus [39] = assay: Antibacterial activity against methicillin-resistant Staphylococcus aureus clinical isolate M12 infected in sepsis BALB/c mouse model assessed as decrease in pathological change in white medulla of spleen at 12 mg/kg, ip administered consecutively at 12 hr-interval for 24 hrs measured after 24 hrs post-last dose by H and E staining based analysis; assay type: functional, organism-based; conditions: time 48.0 hrs

Work on C=CCc1cc(-c2ccc(OCCC[N+](C)(C)CC(=O)NCCCC)c(CC=C)c2)c2oc(=S)n(Cc3ccc(F)cc3)c2c1.[Br-] yielded an MIC (Staphylococcus aureus [1]) of 2 µg/mL, an MIC (Staphylococcus aureus [2]) of 4 µg/mL and an MIC (Escherichia coli) greater than 128 µg/mL. For the same compound, the Activity (Staphylococcus aureus [3]) was 100%, the Activity (Staphylococcus aureus [4]) was “Active” and the Activity (Staphylococcus aureus [5]) was “Active”. The Activity (Staphylococcus aureus [6]) was “Active”, the MIC (Staphylococcus aureus [7]) was 2 µg/mL and the MIC (Staphylococcus aureus [8]) was 2 µg/mL. For the same compound, the “fold change (FC)” value (Staphylococcus aureus [9]) was roughly 4, the Activity (Staphylococcus aureus [10]) was “Dose-Dependent Effect” and the Activity [11] was “Non-Toxic”. The Activity [12] was “Toxic”, the Activity [13] was “Non-Toxic” and the Activity [14] was “Non-Toxic”. The Activity [15] was “Non-Toxic”, the Activity [16] was “Non-Toxic” and the Activity [17] was “Non-Toxic”. For the same compound, the Activity [18] was “Non-Toxic”, the Activity [19] was “Non-Toxic” and the Activity [20] was “Non-Toxic”. For the same compound, the Activity [21] was “Non-Toxic”, the Activity [22] was “Non-Toxic” and the Activity [23] was “Non-Toxic”. For the same compound, the Activity [24] was “Non-Toxic”, the Activity [25] was “Non-Toxic” and the Activity [26] was “Non-Toxic”. The Activity [27] was “Non-Toxic”, the Activity [28] was “Non-Toxic” and the Activity [29] was “Non-Toxic”. For the same compound, the Activity [30] was “Non-Toxic”, the Activity (Staphylococcus aureus [31]) was “Active” and the Activity (Staphylococcus aureus [32]) was “Active”. The Activity (Staphylococcus aureus [33]) was “inactive”, the Activity (Staphylococcus aureus [34]) was 91.5 pg/mL and the Activity [35] was “Non-Toxic”. For the same compound, the Activity [36] was “Non-Toxic”, the Activity (Staphylococcus aureus [37]) was 1.45 log10CFU/g and the Activity (Staphylococcus aureus [38]) was 1.67 log10CFU/g. The Activity (Staphylococcus aureus [39]) was “Active”.
